Experimental data from patent US10017481B2, “Conformationally constrained, fully synthetic macrocyclic compounds” (POLYPHOR AG, priority 2012, dated 2018).

How the values were obtained:
Type in all cases: in vitro ADME
[1] = Plasma stability assay, CD-1 mouse plasma; conditions: for Plasma Stability 240 min mouse/(rat) [% remain.]: CD-1 mouse plasma, 10 μM, 37° C.; for half-life at 10 μM: both sexes, CD-1, mouse, plasma
Procedure: (§1) 5. Plasma and Metabolic Stability Assays Example compounds were dissolved in DMSO/H2O 90:10 to a final concentration of 10 mM for plasma stability determination and metabolic stability determination. The assays were conducted according to literature precedents (F. P. Guengerich, Analysis and Characterization of Enzymes; in: Principles and Methods of Toxicology, A. W. Hayes (Ed.) Raven Press: New York, 1989, 777-813; R. Singh et al., In vitro metabolism of a potent HIV-protease inhibitor (141W94) using rat, monkey and human liver S9, Rapid Commun. Mass Spectrom. 1996, 10, 1019-1026). Plasma Stability Assay Human plasma (Blutspendedienst SRK, Basel) and CD-1 mouse plasma (mixed gender pool >50 animals, Innovative Research, Calif., USA) are both sodium citrate stabilized. The assay is performed in triplicates at 10 μM compound concentration and 37° C. Samples are taken at 0, 15, 30, 60, 120 and 240 minutes and stopped by precipitation with 3 volumes of acetonitrile/formic acid 98:2 and shaking (2 minutes, 600 rpm) followed by filtration (−20 mm Hg). The filtrate is collected. The filtrate (100 μL) is evaporated and reconstituted in the suitable solvent (cf. Table 33) to be analyzed by HPLC/MS/MS. The resulting peak area counts are expressed in percent of the 0 value and used to determine the endpoint stability in % and the half life T in minutes. In order to monitor assay integrity the degradation of propantheline is assayed with every experimental set.

[2] = Metabolic stability assay, human liver microsomes; conditions: human microsomes, 10 μM, 37° C.; for half-life at 10 μM: both sexes, liver microsomes, 1 mg/ml protein, read-out: Metabolic Stability T ½ [min] hum
Procedure: (§2) 5. Plasma and Metabolic Stability Assays
(§3) Example compounds were dissolved in DMSO/H2O 90:10 to a final concentration of 10 mM for plasma stability determination and metabolic stability determination.
(§4) The assays were conducted according to literature precedents (F. P. Guengerich, Analysis and Characterization of Enzymes; in: Principles and Methods of Toxicology, A. W. Hayes (Ed.) Raven Press: New York, 1989, 777-813; R. Singh et al., In vitro metabolism of a potent HIV-protease inhibitor (141W94) using rat, monkey and human liver S9, Rapid Commun. Mass Spectrom. 1996, 10, 1019-1026).
(§5) Metabolic Stability Assay
(§6) Microsomes from a human 50 donor mixed gender pool and 1:1 mixtures of microsomes from CD-1 mouse single-gender pools are purchased from Celsis (Belgium). The enzymatic reaction is performed in a buffer containing an NADPH regeneration system and microsomes with the following end concentrations: 100 mM potassium phosphate buffer (all from Sigma), 1 mg/mL glucose-6-phosphate, 1 mg/mL β-nicotinamide adenine dinucleotide phosphate (NADP), 0.65 mg/mL magnesium chloride, 0.8 units/mL of glucose-6-phosphate dehydrogenase (prediluted with 5 mM citrate buffer), 10 μM compound and 1 mg/ml microsomal protein. Compounds are incubated at 37° C. in duplicates and samples are taken after 0, 5, 10, 20 and 60 minutes. After acetonitrile precipitation (3 volumes), shaking (2 minutes, 600 rpm) followed by centrifugation (10 minutes, 3200 g), the supernatant is dried reconstituted in the suitable solvent (cf. Table 33) and analyzed by HPLC/MS/MS. Metabolic turnover is expressed in % of the initial 0 minutes value and half life T½ (min) is calculated. Verapamil for human and propranolol for mouse are used as reference and are assayed with every experimental set.

[3] = Metabolic stability assay, CD-1 mouse microsomes; conditions: CD-1 mouse microsomes, 10 μM, 37° C.; for half-life at 10 μM: both sexes, 1 mg/ml protein, read-out: Metabolic Stability T ½ [min] mouse/(rat)
Procedure: as §2, §3, §4, §5, §6

[4] = Plasma stability assay, human plasma; conditions: for Plasma Stability 240 min hum [% remain.]: human plasma, 10 μM, 37° C.; for half-life at 10 μM: human, plasma
Procedure: as §1

| SMILES | Plasma Stability 240 min mouse/(rat) [% remain.] [1] [% remain.] | half-life at 10 μM [1] [h] | half-life at 10 μM [2] [min] | Metabolic Stability 60 min hum [% remain.] [2] [% remain.] | Metabolic Stability 60 min mouse/(rat) [% remain.] [3] [% remain.] | half-life at 10 μM [3] [min] | Plasma Stability 240 min hum [% remain.] [4] [% remain.] | half-life at 10 μM [4] [h] |
| --- | --- | --- | --- | --- | --- | --- | --- | --- |
| COc1ccc2c(c1)-c1cccc(c1)C(=O)N(C)[C@H](C(=O)NCC(F)(F)F)CCC(=O)N[C@H](C)CO2 [Ex. 53, (10R,15S)-4-methoxy-10,16-dimethyl-12,17-dioxo-N-(2,2,2-trifluoroethyl)-8-oxa-11,16-diazatricyclo[16.3.1.0^2,7]docosa-1(22),2,4,6,18,20-hexaene-15-carboxamide] | 86 | > 4 | > 60 | 100 | 92 | > 60 |  |  |
| COc1ccc2c(c1)-c1cccc(c1)C(=O)N(C)[C@H](C(=O)NCCO)CCC(=O)N[C@H](C)CO2 [Ex. 55, (10R,15S)-N-(2-hydroxyethyl)-4-methoxy-10,16-dimethyl-12,17-dioxo-8-oxa-11,16-diazatricyclo[16.3.1.0^2,7]docosa-1(22),2,4,6,18,20-hexaene-15-carboxamide] | 80 | > 4 | > 60 | 97 | 98 | > 60 |  |  |
| COc1ccc2c(c1)-c1cccc(c1)C(=O)N(C)[C@H](C(=O)N[C@@H](C)c1ccccc1)CCC(=O)N[C@H](C)CO2 [Ex. 58, (10R,15S)-4-methoxy-10,16-dimethyl-12,17-dioxo-N-[(1S)-1-phenylethyl]-8-oxa-11,16-diazatricyclo[16.3.1.0^2,7]docosa-1(22),2,4,6,18,20-hexaene-15-carboxamide] |  |  | > 60 | 87 | 70 | > 60 | 95 | > 4 |
| COc1ccc2c(c1)-c1cccc(c1)C(=O)N(C)[C@H](C(=O)NCc1cccc3ccccc13)CCC(=O)N[C@H](C)CO2 [Ex. 60, (10R,15S)-4-methoxy-10,16-dimethyl-N-(1-naphthylmethyl)-12,17-dioxo-8-oxa-11,16-diazatricyclo[16.3.1.0^2,7]docosa-1(22),2,4,6,18,20-hexaene-15-carboxamide] |  |  | 8 | 0 | 19 | 25 | 97 | > 4 |
| C[C@H]1COc2cccc(c2)-c2cccc(c2)C(=O)N(C)[C@H](C(=O)NCCc2ccccc2)CCC(=O)N1 [Ex. 73, (9S,14S)-9,15-dimethyl-11,16-dioxo-N-phenethyl-7-oxa-10,15-diazatricyclo [15.3.1.1^2,6]docosa-1(21),2(22),3,5,17,19-hexaene-14-carboxamide] |  |  | 2 | 0 | 0 | 1 | 89 | > 4 |
| C[C@H](NC(=O)[C@@H]1CCC(=O)N[C@@H](C)COc2cccc(c2)-c2cccc(c2)C(=O)N1C)c1ccccc1 [Ex. 76, (9S,14S)-9,15-dimethyl-11,16-dioxo-N-[(1S)-1-phenylethyl]-7-oxa-10,15-diazatricyclo[15.3.1.1^2,6]docosa-1(21),2(22),3,5,17,19-hexaene-14-carboxamide] |  |  | 16 | 4 | 9 | 15 | 88 | > 4 |
| C[C@H]1COc2cccc(c2)-c2cccc(c2)C(=O)N(C)[C@H](C(=O)N2CCC2)CCC(=O)N1 [Ex. 86, (9S,14S)-14-(1-azetanylcarbonyl)-9,15-dimethyl-7-oxa-10,15-diazatricyclo [15.3.1.1^2,6]docosa-1(21),2(22),3,5,17,19-hexaene-11,16-dione] | 60 | > 4 |  |  | 71 | > 60 |  |  |
